In article PMC6280737, “Modification Targeting the “Rana Box” Motif of a Novel Nigrocin Peptide From Hylarana latouchii Enhances and Broadens Its Potency Against Multiple Bacteria” (Frontiers in Microbiology, 2018):
Where a SMILES comes first, the peptide text is derived from it.

What was measured:
E. coli (NCTC10418) = format: cell-based, Escherichia coli; settings: for MIC: NCTC10418, 16 h
Description: (§1) The antimicrobial activity of both natural and designed peptides was evaluated by MIC and MBC assays utilizing the broth dilution method. Microorganisms including S. aureus (NCTC10788), MRSA (NCTC 12493 and ATCC43300), Escherichia coli (E. coli) (NCTC 10418), Pseudomonas aeruginosa (P. aeruginosa) (ATCC 27853), Candida albicans (C. albicans) (NCYC 1467) and four clinical MRSA strains (DTMR8, DTMR24, DTMR37, and DTMR121) obtained at the First People’s Hospital of Zhenjiang, China were used. Molecular identification of these four clinical isolates was performed by PCR targeting mecA gene prior to use. After incubation of peptides (ranging from 1 μM to 512 μM, twofold serial dilution) and diluted microorganism cultures for 16 h, the absorbance values of the wells of the 96-well plates were detected at 550 nm with a Synergy HT plate reader (Biotech, United States) and the MICs were defined as the lowest concentration of peptides at which no apparent growth was detected. Ten microliters of culture in the wells were loaded onto Mueller-Hinton agar (MHA) medium and incubated at 37°C for another 18 h. The MBC of the peptide against a microbe was defined as the lowest concentration at which no evidence of colony growth was observed. Five replications were employed for all peptides with different concentrations and controls, and all measurements were made in triplicate.

[1] = system: human bronchial epithelial cell line 16HBE; format: cell-based
Description: (§2) Human keratinocyte cell line HaCaT and human bronchial epithelial cell line 16HBE were obtained from the ATCC. Cells were harvested and diluted to 5 × 10^4 cells/ml using fresh medium. Ninety-nine microliters of diluted cells and 1 μl of peptides (final concentration ranging from 1 to 512 μM, twofold serial dilution, five duplicates) were mixed and seeded into 96-well culture plates. After incubation for 24 h, 10 μl CCK-8 was added into each well, followed by incubation at 37°C for 2 h. Absorbance of each well was determined, and the viabilities of cells were calculated as percentages of the control.
(§3) FIGURE 5 Toxicities of nigrocin-HL and its analog nigrocin-HLM in vitro and in vivo. Cytotoxicity of nigrocin-HL and nigrocin-HLM against (A) HaCaT and (B) 16HBE. Living cells after treatment with peptides were measured utilizing CCK8 assays, and viability was calculated relative to the untreated control. (C) Hemolysis of nigrocin-HL and nigrocin-HLM was determined against horse erythrocytes. All data represent mean ± SD from three independent experiments performed in triplicate (^∗P < 0.05, ^∗∗∗P < 0.001, compared with nigrocin-HL control group; ^###P < 0.001, compared with nigrocin-HLM control group). (D) In vivo toxicities of these two AMPs. Survival rate of mice in 7 days after single i.p. injection of nigrocin-HL and nigrocin-HLM (20 and 40 mg/kg) was recorded.

[2] = system: human keratinocyte cell line HaCaT; format: cell-based
Description: as §2, §3

C. albicans (NCYC1467) = format: cell-based, Candida albicans; settings: for MIC: NCYC1467, 16 h; for MBC: NCYC1467, 18 h
Description: as §1

BALB/c mice = experiment: In vivo acute toxicity, 7-day mortality; settings: single i.p. injection
Description: Mice were administered with 20.0 and 40 mg/kg of nigrocin-HL and nigrocin-HLM (i.p.) and a 7-day mortality was recorded.
as §3

S. aureus (NCTC10788) = format: cell-based, Staphylococcus aureus; settings: for MIC: NCTC10788, 16 h; for MBC: NCTC10788, 18 h
Description: as §1

mature MRSA biofilm = format: cell-based, methicillin-resistant S. aureus
Description: Minimum biofilm eradication concentration (MBEC) assay was carried out with a modified microtiter plate method as described previously ([Gao et al., 2017]).
FIGURE 4 Minimum biofilm eradication concentration (MBEC) of peptides against mature MRSA biofilm. All data represent means ± SD from three independent experiments performed in triplicate (^∗∗∗∗P < 0.0001 versus the viability of the corresponding concentration of nigrocin-HL).

horse erythrocytes = format: cell-based
Description: Hemolytic property of peptides was measured using erythrocytes prepared from defibrinated horse blood (TCS Biosciences, Botolph Claydon, Buckingham, United Kingdom) as indicated previously ([Wu et al., 2016]).
as §3

[3] = Circular dichroism, percentage of α-helix by K2D3; format: physicochemical; settings: CD 190-250 nm, 20°C, 50% TFE in 10 mM ammonium acetate buffer, 100 μM peptide (legend: 50 μM)
Description: Additionally, circular dichroism (CD) analyses were carried out utilizing a JASCO J815 Spectropolarimeter (JASCO Inc., United States). Samples were measured within the range of 190-250 nm at 20°C. The parameters were set as: 200 nm/min scanning speed, a bandwidth of 1 nm, and 0.5 nm data pitch. Both peptide samples were dissolved in […] ammonium acetate buffer and 50% TFE in 10 mM ammonium acetate buffer at a concentration of 100 μM. The percentage of the α-helix structure was predicted by the website […]^2 ([Louis-Jeune et al., 2012]).

[4] = system: clinical MRSA strain DTMR37; format: cell-based, methicillin-resistant S. aureus
Description: as §1

MRSA (ATCC43300) = format: cell-based, methicillin-resistant S. aureus
Description: as §1

MRSA (NCTC12493) = format: cell-based, methicillin-resistant S. aureus; settings: NCTC12493, 16 h
Description: as §1

[5] = system: clinical MRSA strain DTMR8; format: cell-based, methicillin-resistant S. aureus
Description: as §1

[6] = system: clinical MRSA strain DTMR121; format: cell-based, methicillin-resistant S. aureus
Description: as §1

[7] = system: clinical MRSA strain DTMR24; format: cell-based, methicillin-resistant S. aureus
Description: as §1

[8] = system: P. aeruginosa (ATCC27853); format: cell-based, Pseudomonas aeruginosa
Description: as §1

CC[C@H](C)[C@H](NC(=O)CNC(=O)[C@H](CO)NC(=O)[C@H](CC(C)C)NC(=O)[C@H](CC(C)C)NC(=O)CN)C(=O)N[C@@H](CC(C)C)C(=O)NCC(=O)N[C@@H](C)C(=O)NCC(=O)N[C@@H](CCCCN)C(=O)N[C@@H](CCCCN)C(=O)N[C@H](C(=O)N[C@H](C(=O)N[C@H]1CSSC[C@@H](C(=O)O)NC(=O)[C@H](CC(C)C)NC(=O)CNC(=O)[C@H](CO)NC(=O)[C@H](CC(C)C)NC(=O)CNC1=O)C(C)C)[C@@H](C)CC [Nigrocin-HL] (HELM PEPTIDE1{G.L.L.S.G.I.L.G.A.G.K.K.I.V.C.G.L.S.G.L.C}$PEPTIDE1,PEPTIDE1,15:R3-21:R3$$$V2.0; N-terminus and C-terminus assumed)
MIC (E. coli (NCTC10418)): 125.40 µg/mL | lowest dosage at which cell growth inhibition occurred [1]: 32 µM | lowest dosage at which cell growth inhibition occurred [2]: 32 µM | MIC (C. albicans (NCYC1467)): 62.70 µg/mL | MBC (C. albicans (NCYC1467)): 501.61 µg/mL | 7-day mortality (BALB/c mice; 20 mg/kg): mice all died from day 3 to day 7 | 7-day mortality (BALB/c mice; 40 mg/kg): mice all died from day 3 to day 7 | MIC (S. aureus (NCTC10788)): 62.70 µg/mL | MBC (S. aureus (NCTC10788)): 250.81 µg/mL | MBEC (mature MRSA biofilm): > 16 µM | hemolytic activity (in words) (horse erythrocytes): obvious hemolysis | Helicity (%) [3]: 31.28%

CC[C@H](C)[C@H](NC(=O)CNC(=O)[C@H](CO)NC(=O)[C@H](CC(C)C)NC(=O)[C@H](CC(C)C)NC(=O)CN)C(=O)N[C@@H](CC(C)C)C(=O)NCC(=O)N[C@@H](C)C(=O)NCC(=O)N[C@@H](CCCCN)C(=O)N[C@@H](CCCCN)C(=O)N[C@H](C(=O)N[C@H](C(=O)N[C@@H](Cc1ccccc1)C(N)=O)C(C)C)[C@@H](C)CC [Nigrocin-HLM] (H-GLLSGILGAGKKIVF-NH2)
MIC (E. coli (NCTC10418)): 11.77 µg/mL | MBC (E. coli (NCTC10418); NCTC10418, 18 h): 23.55 µg/mL | lowest dosage at which cell growth inhibition occurred [1]: > 512 µM | lowest dosage at which cell growth inhibition occurred [2]: > 512 µM | MIC (C. albicans (NCYC1467)): 2.94 µg/mL | MBC (C. albicans (NCYC1467)): 5.89 µg/mL | MIC ([4]; clinical strain DTMR37, 16 h): 1 µM | MBC ([4]; clinical strain DTMR37, 18 h): 2.94 µg/mL | MIC (MRSA (ATCC43300); ATCC43300, 16 h): 1 µM | MBC (MRSA (ATCC43300); ATCC43300, 18 h): 5.89 µg/mL | MIC (MRSA (NCTC12493)): 4 µM | MIC ([5]; clinical strain DTMR8, 16 h): 1 µM | MBC ([5]; clinical strain DTMR8, 18 h): 2.94 µg/mL | MIC ([6]; clinical strain DTMR121, 16 h): 1 µM | MBC ([6]; clinical strain DTMR121, 18 h): 1.47/1.47 mg/l | MIC ([7]; clinical strain DTMR24, 16 h): 1 µM | MBC ([7]; clinical strain DTMR24, 18 h): 1.47/1.47 mg/l | 7-day mortality (BALB/c mice; 20 mg/kg): no mortality was observed | 7-day mortality (BALB/c mice; 40 mg/kg): no mortality was observed | MIC (S. aureus (NCTC10788)): 2.94 µg/mL | MBC (S. aureus (NCTC10788)): 5.89 µg/mL | MBEC (mature MRSA biofilm): 8 µM | concentration up to which devoid of hemolytic activity (horse erythrocytes): > 128 µM | hemolytic activity (in words) (horse erythrocytes): negligible hemolytic activity | MIC ([8]; ATCC27853, 16 h): 32 µM | MBC ([8]; ATCC27853, 18 h): 32 µM

CC[C@H](C)[C@H](NC(=O)CNC(=O)[C@H](CO)NC(=O)[C@H](CC(C)C)NC(=O)[C@H](CC(C)C)NC(=O)CN)C(=O)N[C@@H](CC(C)C)C(=O)NCC(=O)N[C@@H](C)C(=O)NCC(=O)N[C@@H](CCCCN)C(=O)N[C@@H](CCCCN)C(=O)N[C@H](C(=O)N[C@H](C(=O)O)C(C)C)[C@@H](C)CC [Nigrocin-HLD] (H-GLLSGILGAGKKIV-OH; N-terminus and C-terminus assumed)
MIC (E. coli (NCTC10418)): 84.87 µg/mL | MIC (C. albicans (NCYC1467)): 42.43 µg/mL | MBC (C. albicans (NCYC1467)): 339.46 µg/mL | MIC (S. aureus (NCTC10788)): 42.43 µg/mL | MBC (S. aureus (NCTC10788)): 169.73 µg/mL
